Results reported in paper doi:10.1101/2022.11.14.516475v2 (biorxiv, 2022).
Values belong to the molecule of their own block, whether it stands above or below them.

How the values were obtained:
D2 [1] = target: T1, D2 (Homo sapiens, UniProt P14416); format: binding; design: gene DRD2; full length; pcDNA3.1 mutants); DiscoverX beta-galactosidase fragment fusion for beta-arrestin assay; settings: wild-type control
[2] = target: T2, SNAP-tagged human D2SR (SNAP-D2RS) (Homo sapiens, UniProt P14416); assay: TR-FRET association kinetics; format: binding; settings: labelled compound; read-out: Kd (koff / kon)
T2 construct: gene DRD2

D2 [3] = target: T1, D2; format: cell-based; design: gene DRD2; full length; pcDNA3.1 mutants); DiscoverX beta-galactosidase fragment fusion for beta-arrestin assay; settings: agonist
[4] = target: T3, 5-HT2C serotonin receptor (Homo sapiens, UniProt P28335); assay: PDSP radioligand binding competition; settings: read-out: % inhibition at 10 μM
T3 construct: gene HTR2C
T3 sequence (P28335 33-458): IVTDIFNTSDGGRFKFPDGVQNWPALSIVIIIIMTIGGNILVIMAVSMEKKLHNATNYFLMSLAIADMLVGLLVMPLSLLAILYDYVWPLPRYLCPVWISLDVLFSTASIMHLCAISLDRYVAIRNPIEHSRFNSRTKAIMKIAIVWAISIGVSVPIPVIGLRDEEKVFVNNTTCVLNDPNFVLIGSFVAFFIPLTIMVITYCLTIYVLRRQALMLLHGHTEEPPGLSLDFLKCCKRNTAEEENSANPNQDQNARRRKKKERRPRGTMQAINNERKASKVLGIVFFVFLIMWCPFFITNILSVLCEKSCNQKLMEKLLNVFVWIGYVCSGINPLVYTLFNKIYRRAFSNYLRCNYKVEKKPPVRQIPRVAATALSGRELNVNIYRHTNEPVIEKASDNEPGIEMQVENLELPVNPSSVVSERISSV

D3 = target: T4, D3 (Homo sapiens, UniProt P35462); assay: biochemical; design: PDSP radioligand binding competition, single concentration, % inhibition of specific binding; settings: read-out: ML321 (10 µM) % Inhibition
T4 construct: gene DRD3
Method: ML321 was screened using the National Institute of Mental Health Psychoactive Drug Screening Program (PDSP) directed by Dr. Bryan L. Roth (University of North Carolina, Chapel Hill, NC). For experimental details including radioligands used and associated Kd values for each individual target, please refer to the PDSP website http://pdsp.med.unc.edu/. […] Assays were performed in triplicate. To further assess ML321 selectivity amongst a larger group of drug targets, we used the NIMH Psychoactive Drug Screening Program (PDSP), which utilizes radioligand binding competition assays for 46 unique GPCRs, transporters and ion channels. For screening, a single high concentration (10 µM) of ML321 was used to compete for radioligand binding to the PDSP targets (Figure 1C).

[5] = target: T2, SNAP-tagged human D2SR (SNAP-D2RS); assay: biochemical; format: CHO cell membranes; design: TR-FRET competition kinetic binding with PPHT-red, Motulsky-Mahan fit; settings: read-out: koff (min^-1)
hERG K+ channel = target: T5, hERG K+ channel (Homo sapiens, UniProt Q12809); assay: automated whole-cell patch clamp, HEK293, tail current; format: cell-based; settings: hek293 cells
T5 construct: gene KCNH2; expressed in HEK293 cells (Cyprotex), automated patch clamp

D2 [6] = target: T1, D2; assay: biochemical; design: gene DRD2; PDSP radioligand binding competition, single concentration, % inhibition of specific binding; settings: read-out: ML321 (10 µM) % Inhibition
[7] = target: T6, 5-HT2A serotonin receptor (Homo sapiens, UniProt P28223); assay: DiscoverX gpcrMAX beta-arrestin recruitment, antagonist mode; format: cell-based; settings: read-out: % inhibition at 10 μM
T6 construct: gene HTR2A; DiscoverX gpcrMAX PathHunter beta-arrestin cell line, enzyme-fragment tagged receptor

5-HT7 serotonin receptor = target: T7, 5-HT7 serotonin receptor (Homo sapiens, UniProt P34969); assay: PDSP radioligand binding competition; settings: read-out: % inhibition at 10 μM
T7 construct: gene HTR7
T7 sequence (P34969 whole entry): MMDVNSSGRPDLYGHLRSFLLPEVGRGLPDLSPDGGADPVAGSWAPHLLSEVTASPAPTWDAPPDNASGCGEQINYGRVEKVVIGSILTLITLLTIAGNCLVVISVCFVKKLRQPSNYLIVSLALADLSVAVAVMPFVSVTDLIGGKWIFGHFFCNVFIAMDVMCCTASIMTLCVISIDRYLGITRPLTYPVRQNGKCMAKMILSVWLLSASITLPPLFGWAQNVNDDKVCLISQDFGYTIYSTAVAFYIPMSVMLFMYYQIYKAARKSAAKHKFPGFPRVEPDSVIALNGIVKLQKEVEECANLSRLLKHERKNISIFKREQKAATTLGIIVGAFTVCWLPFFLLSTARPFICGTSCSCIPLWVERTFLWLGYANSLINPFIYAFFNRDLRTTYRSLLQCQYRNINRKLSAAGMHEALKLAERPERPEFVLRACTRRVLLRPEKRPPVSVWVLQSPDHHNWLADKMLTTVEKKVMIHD

T1 sequence (P14416 whole entry, the tested form may be a part): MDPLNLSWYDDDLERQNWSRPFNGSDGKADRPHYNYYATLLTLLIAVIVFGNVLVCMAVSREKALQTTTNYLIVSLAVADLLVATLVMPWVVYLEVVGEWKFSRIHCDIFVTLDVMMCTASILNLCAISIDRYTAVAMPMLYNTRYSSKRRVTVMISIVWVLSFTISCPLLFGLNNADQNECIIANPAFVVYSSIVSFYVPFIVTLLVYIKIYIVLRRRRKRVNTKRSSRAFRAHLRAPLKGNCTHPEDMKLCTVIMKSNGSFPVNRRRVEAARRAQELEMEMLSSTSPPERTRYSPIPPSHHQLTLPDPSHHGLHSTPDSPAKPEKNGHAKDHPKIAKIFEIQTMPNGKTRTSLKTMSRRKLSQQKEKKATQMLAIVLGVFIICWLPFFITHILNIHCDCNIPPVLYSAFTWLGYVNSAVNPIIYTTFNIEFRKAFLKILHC
T2 sequence (P14416 1-414 isoform P14416-2): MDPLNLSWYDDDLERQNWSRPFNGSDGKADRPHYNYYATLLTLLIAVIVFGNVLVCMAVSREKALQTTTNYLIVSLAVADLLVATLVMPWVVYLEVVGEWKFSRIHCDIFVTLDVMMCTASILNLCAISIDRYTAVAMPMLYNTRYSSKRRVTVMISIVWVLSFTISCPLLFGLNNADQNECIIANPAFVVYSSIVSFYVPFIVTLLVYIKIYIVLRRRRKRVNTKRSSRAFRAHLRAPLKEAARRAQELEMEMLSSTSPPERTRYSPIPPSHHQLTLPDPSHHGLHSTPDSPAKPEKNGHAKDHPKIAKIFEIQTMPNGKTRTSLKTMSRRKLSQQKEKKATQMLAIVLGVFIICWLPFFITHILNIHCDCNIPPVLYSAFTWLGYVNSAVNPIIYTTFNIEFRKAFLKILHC
T4 sequence (P35462 whole entry): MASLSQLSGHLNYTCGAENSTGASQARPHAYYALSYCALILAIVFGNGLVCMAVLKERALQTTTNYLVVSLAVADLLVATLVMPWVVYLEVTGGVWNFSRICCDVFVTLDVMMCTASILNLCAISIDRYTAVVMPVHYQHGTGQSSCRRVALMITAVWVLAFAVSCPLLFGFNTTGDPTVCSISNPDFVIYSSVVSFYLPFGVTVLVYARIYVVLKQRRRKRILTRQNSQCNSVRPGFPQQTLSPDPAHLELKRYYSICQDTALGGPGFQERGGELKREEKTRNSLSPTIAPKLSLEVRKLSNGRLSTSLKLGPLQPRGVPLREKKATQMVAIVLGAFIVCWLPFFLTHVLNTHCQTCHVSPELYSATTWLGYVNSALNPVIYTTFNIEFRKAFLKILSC
T6 sequence (P28223 whole entry, the tested form may be a part): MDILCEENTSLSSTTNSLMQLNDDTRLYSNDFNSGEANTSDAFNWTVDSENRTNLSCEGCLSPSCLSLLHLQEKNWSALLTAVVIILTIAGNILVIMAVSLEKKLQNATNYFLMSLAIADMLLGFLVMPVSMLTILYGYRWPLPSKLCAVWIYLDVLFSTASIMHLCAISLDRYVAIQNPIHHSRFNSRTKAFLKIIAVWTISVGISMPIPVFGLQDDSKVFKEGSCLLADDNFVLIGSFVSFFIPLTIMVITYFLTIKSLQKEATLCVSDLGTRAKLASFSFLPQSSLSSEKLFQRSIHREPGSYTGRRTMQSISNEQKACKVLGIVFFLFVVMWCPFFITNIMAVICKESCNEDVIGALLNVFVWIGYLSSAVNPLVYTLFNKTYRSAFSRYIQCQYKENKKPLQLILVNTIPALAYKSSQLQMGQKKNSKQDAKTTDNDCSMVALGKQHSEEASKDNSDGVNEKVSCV
T5 sequence (Q12809 whole entry): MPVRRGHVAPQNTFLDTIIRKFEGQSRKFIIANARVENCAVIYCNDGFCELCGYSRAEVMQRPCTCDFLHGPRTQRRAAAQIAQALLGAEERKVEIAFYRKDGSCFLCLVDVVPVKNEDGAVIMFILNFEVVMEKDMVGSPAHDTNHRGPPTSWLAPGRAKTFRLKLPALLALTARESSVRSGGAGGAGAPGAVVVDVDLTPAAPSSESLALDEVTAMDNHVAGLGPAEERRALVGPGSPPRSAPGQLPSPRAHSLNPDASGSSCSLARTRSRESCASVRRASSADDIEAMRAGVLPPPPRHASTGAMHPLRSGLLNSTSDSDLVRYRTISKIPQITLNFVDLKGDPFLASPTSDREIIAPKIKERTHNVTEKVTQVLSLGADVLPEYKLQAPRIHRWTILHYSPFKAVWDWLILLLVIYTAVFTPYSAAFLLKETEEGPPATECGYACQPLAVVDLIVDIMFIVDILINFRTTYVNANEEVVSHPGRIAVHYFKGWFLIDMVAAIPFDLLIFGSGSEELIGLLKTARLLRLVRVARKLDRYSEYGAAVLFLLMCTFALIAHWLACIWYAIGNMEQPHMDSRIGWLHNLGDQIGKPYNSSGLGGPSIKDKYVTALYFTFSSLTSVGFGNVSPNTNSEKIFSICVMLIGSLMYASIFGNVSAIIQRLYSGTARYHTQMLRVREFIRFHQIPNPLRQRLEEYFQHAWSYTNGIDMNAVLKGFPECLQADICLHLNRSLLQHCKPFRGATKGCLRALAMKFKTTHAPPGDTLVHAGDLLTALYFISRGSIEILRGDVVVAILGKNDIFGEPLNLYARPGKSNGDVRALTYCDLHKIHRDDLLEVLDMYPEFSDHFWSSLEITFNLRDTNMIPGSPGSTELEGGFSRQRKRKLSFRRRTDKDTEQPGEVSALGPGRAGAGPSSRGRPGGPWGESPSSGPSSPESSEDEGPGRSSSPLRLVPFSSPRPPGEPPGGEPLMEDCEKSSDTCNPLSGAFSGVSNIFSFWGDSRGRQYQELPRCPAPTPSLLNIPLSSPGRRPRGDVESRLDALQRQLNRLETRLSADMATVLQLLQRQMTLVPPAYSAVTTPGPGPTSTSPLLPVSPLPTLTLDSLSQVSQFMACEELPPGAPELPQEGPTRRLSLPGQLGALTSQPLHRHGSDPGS

Molecule: O=C(CCCN1CCC2(CC1)C(=O)NCN2c1ccccc1)c1ccc(F)cc1 [spiperone]
- Ki (D2 [1]): performed using both ML321 and unlabeled spiperone (as a control) with the wild-type

- Kd [2]: 11.5 ± 0.16 nM
Molecule: PPHT-red

Molecule: NCCc1ccc(O)c(O)c1 [dopamine]
- EC50 (D2 [3]): EC50 and IC50 values for dopamine and ML321, respectively, were determined

- inhibition at 10 µM [4]: 64%
- inhibition at 10 µM (D3): 59%
- koff [5]: 1.3 min⁻¹
- inhibition at 10 µM (D2 [6]): 92%
- inhibition at 10 µM [7]: 48%
- inhibition at 10 µM (5-HT7 serotonin receptor): 53%
Molecule: CN1C(=O)c2ccccc2[S@+]([O-])c2ccc(C(=O)NCCc3cccs3)cc21 [ML321]
- IC50 (hERG K+ channel): > 25000 nM
